How the values were obtained:
collagen biosynthesis = assay: Inhibitory activity of collagen biosynthesis (collagen content of the uterus, with 17β-estradiol); assay type: in vivo, SD strain rats (female, 3 weeks old); settings: for Degree of inhibition: uterus collagen
Experimental: In accordance with the method of R. A. Salvador et al. [Arch. Biochem. Biophys. 174, 382 (1976)], 0.2 mg/kg of each test compound was intraperitoneally administered to SD strain rats (.female., 3 weeks old) once a day for 6 days. After that, the collagen content of the uterus was determined and compared with that of control experiment.
*Rats were used 3 animals as one group; initial body weights 41 ± 2- 4

5-lipoxygenase = molecular target: T1, 5-lipoxygenase (Rattus norvegicus, UniProt P12527); assay: Inhibition of 5-lipoxygenase activity in RBL-1 cells (5-HETE production); assay type: cell-based; settings: 37° C., 20 minutes, arachidonic acid + A-23187
T1 construct: endogenous in cells; host or cells: RBL-1
T1 sequence (P12527 1-673): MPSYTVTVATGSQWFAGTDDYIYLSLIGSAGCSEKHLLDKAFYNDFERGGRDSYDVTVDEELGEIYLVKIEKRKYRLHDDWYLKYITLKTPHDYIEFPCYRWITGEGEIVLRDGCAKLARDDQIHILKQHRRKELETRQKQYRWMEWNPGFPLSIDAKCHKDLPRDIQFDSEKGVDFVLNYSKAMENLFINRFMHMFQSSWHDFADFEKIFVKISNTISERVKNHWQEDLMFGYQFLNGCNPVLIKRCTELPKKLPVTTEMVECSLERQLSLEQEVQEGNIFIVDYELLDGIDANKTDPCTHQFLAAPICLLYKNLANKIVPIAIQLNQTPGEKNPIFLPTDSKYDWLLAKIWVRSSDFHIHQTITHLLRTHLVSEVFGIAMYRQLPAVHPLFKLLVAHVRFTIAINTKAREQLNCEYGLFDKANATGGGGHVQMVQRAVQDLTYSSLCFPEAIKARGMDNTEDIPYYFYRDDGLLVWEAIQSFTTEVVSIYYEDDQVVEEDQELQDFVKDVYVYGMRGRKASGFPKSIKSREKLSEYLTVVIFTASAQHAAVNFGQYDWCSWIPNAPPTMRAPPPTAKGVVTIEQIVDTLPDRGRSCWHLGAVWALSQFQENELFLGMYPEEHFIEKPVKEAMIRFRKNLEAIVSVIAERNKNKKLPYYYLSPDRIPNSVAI
Experimental: 10^7 RBL-1 cells (rat basophilic leukemia cells) are suspended in 0.5 ml of MCM (mast cell medium), and, then, a test solution (0.5 ml of MCM, 50 μg of arachidonic acid, 10 μg of A-23187 and 1 μM or 10 μM of the quinone compound) is added. The reaction is conducted at 37° C. for 20 minutes. After completion of the reaction, 4 ml of ethanol including 1,4-dimethoxy-2-methyl-3-(3-methoxypropyl)naphthalene are added (0.5 μg/ml) are added as an internal reference. After shaking well, the mixture is allowed to stand at room temperature for 10 minutes. Then, the mixture was centrifuged (2000 r.p.m./min.) for 10 minutes and the supernatant is separated. This supernatant is concentrated under reduced pressure to about 200 μl. To the concentrate is added a high performance liquid chromatography solvent [CH3 CN(1500): CH3 OH(500): water (1100): acetic acid(2); pH 5.6 (adjusted with aqueous ammonia)] to make a total of 1 ml. A 200 μl portion of this solution is taken and 5-HETE (5-hydroxyeicosatetraenoic acid) is assayed by high performance liquid chromatography. The degree of inhibition of 5-HETE production (IE) is expressed in terms of […], where a is the peak height or area after correction with the peak of the internal reference standard in the absence of the quinone compound and b is the peak height or area after correction with the peak of the internal reference standard in the presence of the quinone compound.

[1] = 17β-estradiol + compound, 0.2 mg/kg i.p. once a day for 6 days

Structure (SMILES)	Collagen content of uterus (collagen biosynthesis; [1])	Degree of inhibition (collagen biosynthesis; [1])	inhibition at 1 µM (5-lipoxygenase)	inhibition at 10 µM (5-lipoxygenase)	also measured
COC1=C(OC)C(=O)C(CCCCCCCCCC(=O)N[C@@H](CCCNC(=N)N)C(=O)O)=C(C)C1=O [n: 9, Z:CONHArg, 10-(2,3-dimethoxy-5-methyl-1,4-benzoquinon-6-yl)decanoyl-L-arginine]	2.86 ± 0.75 mg	33%	–	–	–
COC1=C(C)C(=O)C(COc2ccc(CC(=O)O)cc2)=C(C)C1=O	–	–	70.1%	81.5%	–
NC1=NN(c2cccc(C(F)(F)F)c2)CC1 [BW755C, reference compound]	–	–	21.8%	39.1%	–
CCCCCC#CCC#CCC#CCC#CCCCC(=O)O [ETYA, Eicosatetraynoic acid, reference compound]	–	–	35.9%	39.4%	–
CC1=C(C)C(=O)C(c2nc3cc(C(C)C(=O)O)ccc3o2)=C(C)C1=O (centres unmarked)	–	–	63.5%	79.2%	–
COC1=C(OC)C(=O)C(COc2ccc(/C=C/C(=O)O)cc2)=C(C)C1=O [drawing 32]	2.77 ± 0.25 mg	38%	–	–	–
COC1=C(OC)C(=O)C(CC=C(C)COc2ccc(CC(=O)O)cc2)=C(C)C1=O [drawing 38]	–	–	72.2%	83.3%	–
COC1=C(OC)C(=O)C(/C=C/C(=O)O)=C(C)C1=O [drawing 30]	2.53 ± 0.28 mg	51%	–	–	–
COC1=C(OC)C(=O)C(/C=C/C(C)=O)=C(C)C1=O [drawing 31]	2.98 ± 0.15 mg	26%	–	–	–
C[C@]12CC[C@@H]3c4ccc(O)cc4CC[C@H]3[C@@H]1CC[C@@H]2O [17β-estradiol, reference compound]	–	–	–	–	Collagen content of uterus (collagen biosynthesis; 17β-estradiol alone): 3.45 ± 0.11 mg; Body weight of rats (collagen biosynthesis; 17β-estradiol alone, 3 rats per group, initial body weight about 41 g): 73 ± 3 g
COC1=C(OC)C(=O)C(CC=C(C)COc2ccc(/C=C/C(=O)O)cc2)=C(C)C1=O	–	–	76.6%	85.8%	–
COC1=C(OC)C(=O)C(CCCCOc2ccc(/C=C/C(=O)O)cc2)=C(C)C1=O	–	–	72%	83.1%	–
COC1=C(OC)C(=O)C(COc2ccc(/C=C/C(=O)O)cc2)=C(C)C1=O [drawing 37]	–	–	73.9%	83.5%	–

Reference: patent US4874752A, “Benzoquinone derivatives and production thereof” (Takeda Chemical Industries, Ltd., priority 1982, dated 1989)
